Experimental data from ChEMBL document CHEMBL1149239, “Synthesis and pharmacological evaluation of piperidinoalkanoyl-1,2,3,4-tetrahydroisoquinoline derivatives as novel specific bradycardic agents” (2004).

Tests used:
Type in all cases: functional
Cavia porcellus = species on record: Cavia porcellus; assay: Concentration required to produce 30% reduction from the initial beat rates in isolated guinea pig right atria.
Rattus norvegicus [1] = assay: Reduction of spontaneous sinus heart rate (HR) when […] in conscious rats; Reduced from -5.28 to -20.0 beats/min
Rattus norvegicus [2] = assay: Reduction of mean blood pressure (MBP) when […] in conscious rats; Reduced from 2.12 to 2.0 mmHg
Rattus norvegicus [3] = assay: Reduction of spontaneous sinus heart rate (HR) when […] in conscious rats; Reduced from -23.5 to -87.8 beats/min

| Structure (SMILES) | EC30 (Cavia porcellus) [µM] | further results |
| --- | --- | --- |
| COc1cc2c(cc1OC)CN(C(=O)CCN1CCC(COc3ccc4c(c3)OCO4)CC1)CC2 | 0.47 | Heart rate (Rattus norvegicus [1]): -20 beats min-1 |
| COc1cc2c(cc1OC)CN(C(=O)CCN1CCC(CCCOc3ccc4c(c3)OCO4)CC1)CC2 | 0.62 |  |
| COc1cc2c(cc1OC)CN(C(=O)CCN1CCCC(COc3ccc4c(c3)OCO4)C1)CC2 (stereo not given) | 0.17 |  |
| COc1cc2c(cc1OC)CN(C(=O)CN1CCCC(COc3ccc4c(c3)OCO4)C1)CC2 (stereo not given) | 1.17 |  |
| COc1cc2c(cc1OC)CN(C(=O)CCN1CCC(CCOc3ccc4c(c3)OCO4)CC1)CC2 | 0.45 |  |
| COc1cc2c(cc1OC)CN(C(=O)C1CCCN(CCCOc3ccc4c(c3)OCO4)C1)CC2 (stereo not given) | 0.37 |  |
| COc1cc2c(cc1OC)CN(C(=O)CCN1CCCC(CCOc3ccc4c(c3)OCO4)C1)CC2 (stereo not given) | 0.34 |  |
| COc1cc2c(cc1OC)CN(C(=O)CCN1CCC(Oc3ccc4c(c3)OCO4)CC1)CC2 | 0.44 | MBP (Rattus norvegicus [2]): 2 mmHg; Heart rate (Rattus norvegicus [3]): -87.8 beats min-1 |
| COc1cc2c(cc1OC)CN(C(=O)CCN1CCCC(Oc3ccc4c(c3)OCO4)C1)CC2 (stereo not given) | 3.03 |  |
| COc1cc2c(cc1OC)CN(C(=O)CCN1CCCC(CCCOc3ccc4c(c3)OCO4)C1)CC2 (stereo not given) | 0.39 |  |
| COc1cc2c(cc1OC)CN(C(=O)CCCN1CCCC(COc3ccc4c(c3)OCO4)C1)CC2 (stereo not given) | 0.85 |  |
| COc1ccc(CCN(C)CCCN2CCc3cc(OC)c(OC)cc3CC2=O)cc1OC [ZATEBRADINE] | 0.26 |  |
